Earlier results, collected in US20220257592A1, “METHODS OF TREATING CANCER” (HOFFMANN-LA ROCHE INC., priority 2019, published 2022).

Target: anaplastic lymphoma kinase (ALK) (Homo sapiens, UniProt Q9UM73)
Conditions: cited from earlier work

Chain of anaplastic lymphoma kinase (ALK) (Q9UM73 19-1620): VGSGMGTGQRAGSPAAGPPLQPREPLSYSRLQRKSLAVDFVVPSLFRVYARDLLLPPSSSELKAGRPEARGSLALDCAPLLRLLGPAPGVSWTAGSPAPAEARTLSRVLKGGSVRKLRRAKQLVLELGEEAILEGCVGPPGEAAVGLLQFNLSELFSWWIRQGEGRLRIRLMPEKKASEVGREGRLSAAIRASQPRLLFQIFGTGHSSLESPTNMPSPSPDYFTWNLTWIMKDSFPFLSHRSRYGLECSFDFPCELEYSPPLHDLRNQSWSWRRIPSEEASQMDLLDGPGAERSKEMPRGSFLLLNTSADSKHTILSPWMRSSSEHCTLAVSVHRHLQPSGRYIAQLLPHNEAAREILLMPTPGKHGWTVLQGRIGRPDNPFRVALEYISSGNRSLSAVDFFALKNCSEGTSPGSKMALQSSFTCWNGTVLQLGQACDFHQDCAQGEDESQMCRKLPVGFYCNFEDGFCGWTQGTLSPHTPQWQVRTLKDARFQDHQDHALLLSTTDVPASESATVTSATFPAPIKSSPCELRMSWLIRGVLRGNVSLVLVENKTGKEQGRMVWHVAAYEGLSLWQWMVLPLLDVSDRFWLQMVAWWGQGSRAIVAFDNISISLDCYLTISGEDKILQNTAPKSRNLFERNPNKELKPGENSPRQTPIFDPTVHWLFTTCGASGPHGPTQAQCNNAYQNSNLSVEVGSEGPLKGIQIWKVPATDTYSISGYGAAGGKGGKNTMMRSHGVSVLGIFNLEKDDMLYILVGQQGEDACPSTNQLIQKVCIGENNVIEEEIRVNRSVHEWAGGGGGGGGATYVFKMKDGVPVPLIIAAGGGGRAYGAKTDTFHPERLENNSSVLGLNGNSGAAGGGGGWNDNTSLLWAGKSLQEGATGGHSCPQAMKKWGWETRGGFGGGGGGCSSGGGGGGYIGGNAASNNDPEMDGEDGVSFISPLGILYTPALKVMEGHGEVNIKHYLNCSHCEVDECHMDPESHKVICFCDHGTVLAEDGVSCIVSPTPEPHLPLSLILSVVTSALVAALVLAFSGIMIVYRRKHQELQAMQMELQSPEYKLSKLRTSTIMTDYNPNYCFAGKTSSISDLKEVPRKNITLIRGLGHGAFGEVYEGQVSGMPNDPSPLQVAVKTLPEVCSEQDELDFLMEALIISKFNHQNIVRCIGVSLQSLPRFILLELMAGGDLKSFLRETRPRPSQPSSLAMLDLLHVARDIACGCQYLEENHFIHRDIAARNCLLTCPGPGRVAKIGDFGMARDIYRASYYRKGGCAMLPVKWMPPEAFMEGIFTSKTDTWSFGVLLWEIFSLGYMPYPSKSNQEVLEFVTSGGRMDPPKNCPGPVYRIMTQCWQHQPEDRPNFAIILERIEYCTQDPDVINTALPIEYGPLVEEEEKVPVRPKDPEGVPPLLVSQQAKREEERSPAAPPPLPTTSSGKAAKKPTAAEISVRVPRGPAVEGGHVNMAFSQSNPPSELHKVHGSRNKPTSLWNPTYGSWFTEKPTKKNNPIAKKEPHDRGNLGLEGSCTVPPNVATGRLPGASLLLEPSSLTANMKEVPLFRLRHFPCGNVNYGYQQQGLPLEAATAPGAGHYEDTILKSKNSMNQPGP

CN1CCN(c2ccc(C(=O)Nc3n[nH]c4ccc(Cc5cc(F)cc(F)c5)cc34)c(NC3CCOCC3)c2)CC1 [Entrectinib, N-[5-(3,5-difluorobenzyl)-1H-indazol-3-yl]-4-(4-methyl-piperazin-1-yl)-2-(tetrahydro-pyran-4-ylamino)-benzamide]
inhibition of ALK tyrosine kinase: potent inhibitor
